Values of other authors, collected in paper PMC11487561 (ACS Chemical Neuroscience, 2024).

Legend:
[1] = design: method as in PMID 31787491, PMID 34710625; settings: previously reported tricycles, Figure 2; cited from earlier work
[2] = design: method as in PMID 31787491, PMID 34710625; settings: previously reported tricycles, Figure 2; cited from earlier work; remark: listed apart in the source

COc1cc(N2CC(Nc3ncnc4c3ccc3nn(C)c(C)c34)C2)c(Cl)cn1 [VU6017649]
rat CLhep [1]: 44 mL/min/kg
Kp [2]: 1.55
Kp,uu [2]: 3.88

Cc1cc(C)c2c(n1)sc1c(N3CC4(COC4)C3)ncnc12 [VU6007215]
rat CLhep [1]: 63 mL/min/kg
Kp [2]: 4.47
Kp,uu [2]: 0.40
